In patent US20100075969A1, “Angiogenesis” (UNIVERSITY OF LEICESTER, priority 2006, published 2010):

Tests used:
[1] = tested on: MTLn3 cells; test: Galvanotaxis in applied electric field, MTLn3 mammary adenocarcinoma cells; assay type: cell-based
[2] = tested on: aortic macrovascular endothelial cells; test: Galvanotaxis in applied electric field, aortic macrovascular endothelial cells; assay type: cell-based, human; settings: electric field 100 mV/mm
Description: (§1) Endothelial cells were seeded at low density in medium within electrostatic chambers for 2-3 hours prior to exposure to an electric field (EF). A roof consisting of a No 1 cover slip was applied and sealed on top of the chamber, as previously described (in Pullar et al (2005) J Cell Sci 118 (Pt 9), 2023-2034; Pullar et al (2006) Mol Biol Cell and Pullar et al (2001) Cell Motil Cytoskeleton 50 (4), 207-217). A direct current EF of 100 mV/mm was applied through agar bridges connecting silver/silver chloride electrodes to the culture medium at either side of the chamber. The chamber was placed on an inverted microscope with temperature controlled at 37° C.
(§2) Time-lapse images were recorded every 10 minutes over 1 hour and analyzed with Improvision software as previously described (Pullar et al (2005) J Cell Sci 118 (Pt 9), 2023-2034; Pullar et al (2006) Mol Biol Cell and Pullar et al (2001) Cell Motil Cytoskeleton 50 (4), 207-217). […] Therefore, the average of directedness values of a population of cells gives an objective quantification of how, directionally, cells have moved within the electric field. […] Migration rate was analyzed with the following two parameters, ie trajectory speed (μm/min) is the total length of the migration trajectory of a cell divided by the given period of time (ie 60 minutes).

[3] = tested on: aortic rings; test: Rat aortic ring assay (capillary outgrowth); assay type: cell-based; settings: after 90 hours; 10 nM ICI 118,551 or 1 μM salbutamol; vs untreated
Description: A rat aortic ring assay (as described in Nicosia and Ottinetti (1990) Lab Invest 63 (1), 115-122; and Diglio et al (1989) Lab Invest 60 (4), 523-531) was used to study the effect of β2-AR ligands on vessel formation. Rat aorta was obtained from animals that were euthanised under a Home Office Approved Schedule 1 method. The aorta was cut into small rings with sterile scissors and each piece was submerged under a 50 μl bead of Matrigel in the bottom of each in a 24-well dish. […] Vessel growth was observed using an inverted Nikon Diaphot microscope every 30 hours and images were captured as described in Pullar et al (2005) J Cell Sci 118 (Pt 9), 2023-2034; Pullar et al (2006) Mol Biol Cell and Pullar et al (2001) Cell Motil Cytoskeleton 50 (4), 207-217.

[4] = tested on: dermal microvascular endothelial cells; test: Scratch (wound healing) assay, dermal microvascular endothelial cells; assay type: cell-based, human; settings: 10 nM ICI 118,551 or 1 μM salbutamol
Description: Endothelial cells were grown to confluence in medium on plastic tissue culture dishes (Fisher Scientific, Pittsburgh, Pa.) coated with 60 μg/ml collagen I (Vitrogen 100, Collagen Corp., Palo Alto, Calif.) in PBS for 1 hour at 37° C. […] Demarcated areas of each wound were photographed on an inverted Nikon Diaphot microscope at the time of wounding (time 0) up to wound healing as described in Pullar et al., (2003) J Biol Chem 278 (25), 22555-22562. Image J was used to measure each demarcated wound area at time 0 and 20 hours post wounding and the results were averaged to calculate the % healing for control and β2-AR ligand-treated cells.

[5] = tested on: chick chorioallantoic membrane (CAM); test: Chick chorioallantoic membrane (CAM) assay; assay type: in vivo; settings: day 8 chick embryos, 48 hours; 10 μM agonist, 10 μM forskolin or 10 nM ICI 118,551; control 15
Description: Fertilised chicken eggs were obtained within the first two days of embryonic development, and were cleaned and incubated at 37° C. for 24 hours. On day 3 of development, 1-2 ml of albumin was removed from the apex end of each egg with a sterile needle. A window of 1.5×1.5 cm was created in the shell with a Dremmel tool, and was sealed with clear adhesive tape. […] Images of the exposed vasculature were captured 48 hours later using a Nikon microscope/imaging system. Scale bar=1 mm. Bifurcation points were counted in four fields for the control/treatment groups.

[6] = tested on: dermal microvascular endothelial cells; test: Galvanotaxis in applied electric field, dermal microvascular endothelial cells; assay type: cell-based, human; settings: electric field 100 mV/mm
Description: as §1, §2

[7] = tested on: B16-BL6 melanoma cells; test: β2-AR/melanoma in-vivo study (B16-BL6 in SKH1 mice); settings: for tumour surface area / tumour average surface area: s.c. pump, ICI 118,551 0.75 mg/kg/day or salbutamol 3 mg/kg/day, 7 mice per group
Description: Twenty one, 5 week-old female SKH1 mice (immunocompetent, hairless albino strain, Charles River, Wilmington, Mass.) weighing 18 g-25 g were divided into 3 groups of 7 mice.
Melanomas were imaged daily by both transillumination and surface photography at 2× magnification, using an upright Nikon microscope controlled by Pixera software (San Jose, Calif.). Mice were sacrificed after 11 days by CO2 asphyxiation, and the tumor, lungs and the liver were excised and fixed in 10% buffered formalin for 7 days.
All mice were sacrificed by CO2 asphyxiation, 11 days post melanoma cell injection. The tumours were excised from their sub-dermal location, fixed in saline-buffered 10% formalin for 10 days, and then weighed. The average weight of the tumours from each group was calculated and statistically analysed.

[8] = tested on: endothelial cells; test: In vitro model of angiogenesis: tubule formation on Matrigel; assay type: cell-based
Description: An experimental in vitro model was employed to observe the effect of β2-AR ligands (ie agonists and antagonists) on endothelial cell vessel formation. […] The endothelial cells plated on the top of the Matrigel were maintained in a 37° C. incubator with 5% CO2 Tubule formation was observed every 4 hours up to 21 hours using an inverted Nikon Diaphot microscope.

[9] = 1 μM salbutamol, control cosine=0.5

## Cc1ccc(OCC(O)C(C)NC(C)C)c2c1CCC2 (stereo not drawn) [ICI 118,551]
[1]
  effect on galvanotaxis: little effect on galvanotaxis
[2]; 10 nM ICI 118,551
  increase in directional migration: ≤ 60%
[3]
  capillary outgrowth from cut edges of aortic rings: decreased the length of the capillaries
[4]
  increase in rate of wound closure: 40%
[5]
  number of vessel bifurcation points: > 50
[6]; 10 nM ICI 118,551
  increase in directional migration: ≤ 60%
[7]; 11 days post melanoma cell injection, vs control group
  average weight of tumours: statistically lower than that for the control group
[7]; after 3 days, of 7 mice, ICI 118,551 0.75 mg/kg/day
  number of mice without any signs of tumour development: two
[7]; after 3 days
  tumour surface area: 1.8+/−0.61 mm^2
[7]; after 7 days and by end of study (11 days), of 7 mice, ICI 118,551 0.75 mg/kg/day
  number of mice with no visible signs of tumour development: one
[7]; after 7 days
  tumour average surface area: 4.4+/−1.5 mm^2
[7]; at eleven days, vs control
  size of excised tumours (photograph): much smaller than those in the control sample
[8]; 10 nM ICI 118,551, untreated cells: within 21 hours
  time to highly organized, mature capillary network on Matrigel: ≤ 12 h

## C=C[C@@]1(C)CC(=O)[C@]2(O)[C@@]3(C)[C@@H](O)CCC(C)(C)[C@@H]3[C@H](O)[C@H](OC(C)=O)[C@@]2(C)O1 [forskolin]
[5]
  number of vessel bifurcation points: 5

## CC(C)(C)NCC(O)c1ccc(O)c(CO)c1 (stereo not drawn) [salbutamol]
[1]
  reduction of directional migration: more than 50%
[2]; [9]
  migration directedness (cosine): 0
[3]
  capillary outgrowth from cut edges of aortic rings: significantly increased the length and number of the capillaries
[4]
  increase in rate of wound closure: 40%
[5]
  number of vessel bifurcation points: 4
[6]; [9]
  migration directedness (cosine): 0
[7]; after 3 days
  tumour surface area: 4.1+/−1.3 mm^2
[7]; after 7 days
  tumour average surface area: 10.4+/−2.9 mm^2
[7]; after 7 days, single mouse, salbutamol 3 mg/kg/day
  surface area of the very large tumour of one mouse: 24.8 mm^2
[8]; by 21 hours, 1 μM salbutamol
  capillary network formed on Matrigel: disorganized, immature capillary network
